Source: US20100137373A1, “PESTICIDAL COMPOSITION COMPRISING A STR[…] AN I[…]” (priority 2007, published 2010)

Assays:
[1] = system: Phaedon cochleariae; experiment: Phaedon cochleariae test (cabbage leaf dip, larvae mortality); format: in vivo; settings: foliar, 96 h, single compound, dipped cabbage leaves infested with larvae, after 4 d
Description: (§1) The expected efficacy of a given combination of two compounds is calculated as follows (see Colby, S. R., “Calculating Synergistic and antagonistic Responses of Herbicide Combinations”, Weeds 15, pp. 20-22, 1967):
(§2) X is the efficacy expressed in % mortality of the untreated control for test compound A at a concentration of m ppm respectively m g/ha,
(§3) Y is the efficacy expressed in % mortality of the untreated control for test compound B at a concentration of n ppm respectively n g/ha,
(§4) E is the efficacy expressed in % mortality of the untreated control using the mixture of A and B at m and n ppm respectively m and n g/ha,
(§5) If the observed insecticidal efficacy of the combination is higher than the one calculated as “E”, then the combination of the two compounds is more than additive, i.e., there is a synergistic effect.
(§6) Solvent: 7 parts by weight of dimethylformamide
(§7) Emulsifier: 2 parts by weight of alkylaryl polyglycolether
To produce a suitable preparation of active compound, 1 part by weight of active compound is mixed with the stated amount of solvent and emulsifier, and the concentrate is diluted with emulsifier-containing water to the desired concentration.
Cabbage leaves (Brassica oleracea) are treated by being dipped into the preparation of the active compound of the desired concentration and are infested with larvae of the mustard beetle (Phaedon cochleariae) as long as the leaves are still moist.
After the specified period of time, the mortality in % is determined. 100% means that all the beetle larvae have been killed; 0% means that none of the beetle larvae have been killed.

[2] = system: Myzus persicae; experiment: Myzus persicae test (cabbage leaf dip, mortality); format: in vivo; settings: foliar, 96 h, single compound, infested cabbage leaves dipped, after 4 d
Description: as §1, §2, §3, §4, §5, §6, §7
To produce a suitable preparation of active compound, 1 part by weight of active compound is mixed with the stated amount of solvent and emulsifier, and the concentrate is diluted with emulsifier-containing water to the desired concentration. […]
After the specified period of time, the mortality in % is determined. […]

| Compound | mortality at 20 ppm ([1]; 20 ppm) | mortality at 0.16 ppm ([2]; 0.16 ppm) | mortality at 3e-06 ppm ([1]; 0.000003 ppm) | mortality at 3e-05 ppm ([1]; 0.00003 ppm) | mortality at 3e-06 ppm ([2]; 0.000003 ppm) |
| --- | --- | --- | --- | --- | --- |
| O=[N+]([O-])NC1=NCCN1Cc1ccc(Cl)nc1 [Imidacloprid, reference compound] | 70% | 10% |  |  |  |
| CC1=CC(O/C=C2/C(=O)OC3c4ccccc4CC23)OC1=O (centres unmarked) [Compound A] |  |  | 0% | 0% | 0% |
